Columns and labels:
[1] = system: post-operative delirium model rats; experiment: Trace memory conditioning test (trace memory test and context memory test) in aged post-operative delirium model rats; assay type: in vivo, rat; conditions: SD male elderly rats with laparotomy, 10 mg/kg intraperitoneally immediately after surgery, vs laparotomy+solvent
Text: (§1) Forty (40) SD male elderly rats of 19 to 24 months of age were randomly divided into a control group, an ALLO administration group, a laparotomy+solvent administration group, and a laparotomy+ALLO administration group by 10 rats.
Rats in the laparotomy+solvent administration group and the laparotomy+ALLO administration group were anesthetized with 1.5 to 2.0% isoflurane, and then underwent a median incision of 2 cm in the abdomen. The small intestine was pulled out by about 5 cm from the laparotomy site and extended with a finger for 3 minutes. Next, the abdomen was closed, and local infiltration anesthesia was applied to the wound with 0.2% ropivacaine for post-operative pain. To rats in the laparotomy+ALLO administration group, 10 mg/kg of brexanolone was intraperitoneally administered immediately after surgery. To rats in the laparotomy+solvent administration group, only the same amount of solvent was administered instead of brexanolone. […]
Twelve (12) hours after acquisition of memory of stimulation, a “trace memory test” was performed. Specifically, “only sound stimulation” was performed under different gauges, and freezing behavior at that time was measured.
Finally, 4 hours after the trace memory test, rats were placed under a cage similar to the initial memory acquisition cage and freezing behavior of the rats without stimulation was measured as a “context memory test”.

[2] = system: IL-1β mRNA; experiment: IL-1β mRNA expression in the hippocampus by RT-PCR after laparotomy; assay type: in vivo, rat; conditions: Example 4, 12 hours after surgery, vs laparotomy+solvent, FIG. 5
Description: as §1
Rats in the laparotomy group were subjected to laparotomy in the same manner as in Example 1. To rats in the laparotomy+ALLO administration group, 10 mg/kg of brexanolone was intraperitoneally administered immediately after surgery. To rats in the laparotomy+solvent administration group, only the same amount of solvent was administered instead of brexanolone.
Rats in the control group and the ALLO administration group were not subjected to laparotomy, and only subjected to anesthesia with isoflurane and local infiltration anesthesia with ropivacaine in the same manner. […]
Twelve (12) hours after surgery, the hippocampus, which is considered to be strongly related to an onset of post-operative delirium, was extracted, and mRNA expression levels of IL-1β and TNFα, which are inflammatory cytokines suspected to be related to an onset mechanism of post-operative delirium, were measured by an RT-PCR method. After the trace memory conditioning test of Example 1, the hippocampus was extracted at 48 hours after the laparotomy, and expression levels of IL-1 and TNFα in the hippocampus sample were measured by an ELISA method. […]

| SMILES | attention (proportion of freezing behavior time, trace memory test) ([1]; FIG. 1(1)) | cognitive abilities (freezing behavior, context memory test) ([1]; FIG. 1(2)) | relative expression level of IL-1β mRNA in the hippocampus ([2]; 10 mg/kg intraperitoneally 30 minutes before anesthesia) | relative expression level of IL-1β mRNA in the hippocampus ([2]; 3 mg/kg orally 30 minutes before anesthesia) |
| --- | --- | --- | --- | --- |
| CC(=O)[C@H]1CC[C@H]2[C@@H]3CC[C@H]4C[C@H](O)CC[C@]4(C)[C@H]3CC[C@]12C [brexanolone] | significantly higher | significantly higher | significantly reduce |  |
| C[C@@]1(O)CC[C@H]2[C@H](CC[C@@H]3[C@@H]2CC[C@]2(C)[C@@H](C(=O)Cn4cc(C#N)cn4)CC[C@@H]32)C1 [zuranolone] |  |  |  | significantly reduce |

Reference: US20260144802A1, “POST-OPERATIVE DELIRIUM SUPPRESSANT” (priority 2022, published 2026)
